Patent publication US20260297542A1, “HERBICIDE RESISTANT PLANTS” (SYNGENTA CROP PROTECTION AG, priority 2023, published 2026)
Numbering of substitutions follows the chain as printed.

Columns and labels:
[1] = biological target: T1, AtPPO1 S305L Y361C L362F Y426M L479M (SEQ ID NO.134) (Arabidopsis thaliana, UniProt P55826, L479M/S305L/Y361C/Y362F/Y426M); test: fluorescent Protoporphyrinogen Oxidase assay, crude extract; assay type: biochemical; settings: read-out: percentage inhibition
T1 sequence (P55826 35-537 S305L/Y361C/Y362F/Y426M/L479M): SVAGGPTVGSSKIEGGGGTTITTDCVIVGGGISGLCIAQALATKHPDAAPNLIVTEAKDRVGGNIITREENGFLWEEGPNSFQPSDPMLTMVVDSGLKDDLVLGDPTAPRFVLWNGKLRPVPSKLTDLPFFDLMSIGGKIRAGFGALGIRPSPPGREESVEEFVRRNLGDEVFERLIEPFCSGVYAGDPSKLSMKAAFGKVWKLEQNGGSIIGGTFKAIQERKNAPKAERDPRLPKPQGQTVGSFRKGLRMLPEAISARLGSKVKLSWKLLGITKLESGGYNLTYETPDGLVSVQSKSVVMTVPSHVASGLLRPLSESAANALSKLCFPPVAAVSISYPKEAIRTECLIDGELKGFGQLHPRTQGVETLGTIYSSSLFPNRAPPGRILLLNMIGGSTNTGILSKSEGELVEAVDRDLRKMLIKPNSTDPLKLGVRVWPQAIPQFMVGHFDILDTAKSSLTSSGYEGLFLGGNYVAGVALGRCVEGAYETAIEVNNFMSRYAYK

[2] = biological target: T2, AtPPO1 Y426M T461Q L479M (SEQ ID NO.132) (Arabidopsis thaliana, UniProt P55826, L479M/T461Q/Y426M); test: as above; assay type: biochemical; settings: read-out: percentage inhibition
T2 construct: made in house; host or cells: E. coli BL21 (DE3) hemG, crude extract
T2 sequence (P55826 35-537 Y426M/T461Q/L479M): T1 sequence (P55826 35-537 S305L/Y361C/Y362F/Y426M/L479M) with L271S, C327Y, F328Y, T427Q

Q: How did the inhibition at 0.1 ppm [1] turn out when `CCOC(=O)[C@]1(C)CC(c2cc(-n3c(=O)n(C)c(=S)n(C)c3=O)c(F)cc2Cl)=NO1` [Herbicide D, ethyl (5S)-3-[2-chloro-5-(3,5-dimethyl-2,6-dioxo-4-thioxo-1,3,5-triazinan-1-yl)-4-fluoro-phenyl]-5-methyl-4H-isoxazole-5-carboxylate] was run?
A: 0%

Q: And the inhibition at 1 ppm [1]?
A: 56%

Q: And the inhibition at 10 ppm [1]?
A: 85%

Q: And the inhibition at 100 ppm [1]?
A: 100%

Q: And the inhibition at 0.1 ppm [2]?
A: 58%

Q: What about the inhibition at 1 ppm [2] of the same compound?
A: 79%

Q: What about the inhibition at 10 ppm [2] of the same compound?
A: 95%

Q: What about the inhibition at 100 ppm [2] of the same compound?
A: 100%

Q: With `CCOC(=O)C1(C)CC(c2cc(-n3c(=O)cc(C(F)(F)F)n(C)c3=O)c(F)cc2Cl)=NO1` (stereo not shown) [Herbicide C, 3-(2-chloro-4-fluoro-5-(3-methyl-2,6-dioxo-4-trifluoromethyl-3,6-dihydropyrimidin-1(2H)-yl)phenyl)-5-methyl-4,5-dihydroisoxazole-5-carboxylic acid ethyl ester] as the compound, how does the inhibition at 0.1 ppm [1] read?
A: 19%

Q: What about the inhibition at 1 ppm [1] of the same compound?
A: 65%

Q: What about the inhibition at 10 ppm [1] of the same compound?
A: 99%

Q: What about the inhibition at 100 ppm [1] of the same compound?
A: 100%

Q: And the inhibition at 0.1 ppm [2]?
A: 26%

Q: What about the inhibition at 1 ppm [2] of the same compound?
A: 54%

Q: What about the inhibition at 10 ppm [2] of the same compound?
A: 75%

Q: What about the inhibition at 100 ppm [2] of the same compound?
A: 100%

Q: Which inhibition at 0.1 ppm [1] does the source give for `CCOC(=O)COc1ncccc1Oc1cc(-n2c(=O)cc(C(F)(F)F)n(C)c2=O)c(F)cc1Cl` [Herbicide A, epyrifenacil] here?
A: 0%

Q: What about the inhibition at 1 ppm [1] of the same compound?
A: 40%

Q: What about the inhibition at 10 ppm [1] of the same compound?
A: 83%

Q: What about the inhibition at 100 ppm [1] of the same compound?
A: 92%

Q: What about the inhibition at 0.1 ppm [2] of the same compound?
A: 10%

Q: And the inhibition at 1 ppm [2]?
A: 51%

Q: And the inhibition at 10 ppm [2]?
A: 77%

Q: What about the inhibition at 100 ppm [2] of the same compound?
A: 100%

Q: For `C#CCN1C(=O)C(F)(F)Oc2cc(F)c(-n3c(=O)n(C)c(=S)n(C)c3=O)cc21` [Herbicide B, trifludimoxazin], which inhibition at 0.1 ppm [1] is on record?
A: 100%

Q: What about the inhibition at 1 ppm [1] of the same compound?
A: 100%

Q: And the inhibition at 10 ppm [1]?
A: 100%

Q: And the inhibition at 100 ppm [1]?
A: 100%

Q: And the inhibition at 0.1 ppm [2]?
A: 100%

Q: What about the inhibition at 1 ppm [2] of the same compound?
A: 100%

Q: What about the inhibition at 10 ppm [2] of the same compound?
A: 100%

Q: What about the inhibition at 100 ppm [2] of the same compound?
A: 100%

Q: With `CC(C)N(C)S(=O)(=O)NC(=O)c1cc(-n2c(=O)cc(C(F)(F)F)n(C)c2=O)c(F)cc1Cl` [Herbicide E, saflufenacil] as the compound, how does the inhibition at 0.1 ppm [1] read?
A: 0%

Q: And the inhibition at 1 ppm [1]?
A: 39%

Q: What about the inhibition at 10 ppm [1] of the same compound?
A: 80%

Q: And the inhibition at 100 ppm [1]?
A: 99%

Q: What about the inhibition at 0.1 ppm [2] of the same compound?
A: 0%

Q: What about the inhibition at 1 ppm [2] of the same compound?
A: 26%

Q: And the inhibition at 10 ppm [2]?
A: 70%

Q: What about the inhibition at 100 ppm [2] of the same compound?
A: 100%
